Each block holds one compound with its values, some of them ahead of it.
Experiments:
[1] = target: CYP2C9 (Homo sapiens, UniProt P11712); assay: CYP2C9 inhibition CEREP ligand profiling; conditions: compound concentration 10 uM
[2] = target: Cysteinyl leukotriene receptor 1 (Homo sapiens) (UniProt Q9Y271); assay: LTD4 (h) (CysLT1) CEREP ligand profiling; conditions: Compound concentration 10.0 uM
[3] = target: Serine/threonine-protein kinase pim-3 (Homo sapiens) (UniProt Q86V86); conditions: Compound concentration 1000.0 nM
[4] = target: Endothelin-1 receptor (Homo sapiens) (UniProt P25101); assay: ETA (h) CEREP ligand profiling; conditions: Compound concentration 10.0 uM
[5] = target: Ribosomal protein S6 kinase alpha-4 (Homo sapiens) (UniProt O75676); conditions: Compound concentration 1000.0 nM
[6] = target: Cyclin-dependent kinase 18 (Homo sapiens) (UniProt Q07002); conditions: Compound concentration 1000.0 nM
[7] = target: GABA-A receptor; anion channel (Homo sapiens) (UniProt P14867+P47870+P18507+P28472+P48169+Q99928+Q9UN88+P34903+O00591+O14764+Q8N1C3+P18505+P78334+P47869+P31644+Q16445); assay: Cl- channel CEREP ligand profiling; format: protein-complex assay; conditions: Compound concentration 10.0 uM
[8] = target: Serine/threonine-protein kinase MARK2 (Homo sapiens) (UniProt Q7KZI7); conditions: Compound concentration 1000.0 nM
[9] = target: Dual specificity mitogen-activated protein kinase kinase 5 (Homo sapiens) (UniProt Q13163); conditions: Compound concentration 1000.0 nM
[10] = target: Calcium-activated potassium channel (Homo sapiens) (UniProt Q92952+Q9UGI6+Q12791+O15554+Q9H2S1+A8MYU2); assay: SK+Ca channel CEREP ligand profiling; format: protein assay; conditions: Compound concentration 10.0 uM
[11] = target: Sodium-dependent noradrenaline transporter (Homo sapiens) (UniProt P23975); assay: NE transporter (h) CEREP ligand profiling; conditions: Compound concentration 10.0 uM
[12] = target: T1, Alpha-2B adrenergic receptor (Homo sapiens) (UniProt P18089); assay: alpha 2B (h) CEREP ligand profiling; conditions: Compound concentration 10.0 uM
T1 sequence (whole entry): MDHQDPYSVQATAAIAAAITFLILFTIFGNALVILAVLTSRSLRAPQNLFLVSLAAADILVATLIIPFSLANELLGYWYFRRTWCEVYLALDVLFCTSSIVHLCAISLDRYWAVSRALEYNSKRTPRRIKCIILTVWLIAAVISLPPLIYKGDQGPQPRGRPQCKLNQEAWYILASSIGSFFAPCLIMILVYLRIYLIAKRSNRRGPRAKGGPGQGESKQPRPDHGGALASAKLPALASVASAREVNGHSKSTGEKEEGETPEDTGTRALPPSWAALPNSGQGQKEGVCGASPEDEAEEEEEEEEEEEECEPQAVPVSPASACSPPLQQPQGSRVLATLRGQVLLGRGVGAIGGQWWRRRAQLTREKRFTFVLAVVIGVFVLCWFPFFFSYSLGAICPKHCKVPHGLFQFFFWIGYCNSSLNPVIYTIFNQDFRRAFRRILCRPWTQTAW

[13] = target: Matrix metalloproteinase-9 (Homo sapiens) (UniProt P14780); assay: MMP-9 (h) CEREP ligand profiling; conditions: Compound concentration 10.0 uM
[14] = target: Serine/threonine-protein kinase PLK3 (Homo sapiens) (UniProt Q9H4B4); conditions: Compound concentration 1000.0 nM
[15] = target: T2, D(4) dopamine receptor (Homo sapiens) (UniProt P21917); assay: D4.4 (h) CEREP ligand profiling; conditions: Compound concentration 10.0 uM
T2 sequence (whole entry): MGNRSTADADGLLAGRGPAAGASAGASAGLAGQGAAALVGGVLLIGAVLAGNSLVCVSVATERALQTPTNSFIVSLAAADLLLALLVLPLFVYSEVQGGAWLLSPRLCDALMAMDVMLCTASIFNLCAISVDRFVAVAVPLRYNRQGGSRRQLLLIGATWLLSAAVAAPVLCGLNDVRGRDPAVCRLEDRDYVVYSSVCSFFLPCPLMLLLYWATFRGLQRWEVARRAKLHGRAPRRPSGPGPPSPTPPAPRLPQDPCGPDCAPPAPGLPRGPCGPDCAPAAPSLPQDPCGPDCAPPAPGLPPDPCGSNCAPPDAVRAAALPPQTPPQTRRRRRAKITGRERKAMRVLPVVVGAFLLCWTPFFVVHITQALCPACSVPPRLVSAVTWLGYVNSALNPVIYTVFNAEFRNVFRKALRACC

[16] = target: 5-hydroxytryptamine receptor 1B (Homo sapiens) (UniProt P28222); assay: 5-HT1B CEREP ligand profiling; conditions: Compound concentration 10.0 uM
[17] = tested on: Phosphatidylinositol 4,5-bisphosphate 3-kinase catalytic subunit alpha isoform (Homo sapiens), P42336 [Q546K]; conditions: Compound concentration 1000.0 nM
[18] = target: Ankyrin repeat and protein kinase domain-containing protein 1 (Homo sapiens) (UniProt Q8NFD2); conditions: Compound concentration 1000.0 nM
[19] = target: Leukotriene B4 receptor 1 (Homo sapiens, UniProt Q15722); assay: LTB4 (h) (BLT1) CEREP ligand profiling
[20] = target: Tyrosine-protein kinase Blk (Homo sapiens) (UniProt P51451); conditions: Compound concentration 1000.0 nM
[21] = target: CYP3A4 (Homo sapiens, UniProt P08684); assay: CYP3A4 inhibition CEREP ligand profiling; conditions: compound concentration 10 uM
[22] = target: Serine/threonine-protein kinase 24 (Homo sapiens) (UniProt Q9Y6E0); conditions: Compound concentration 1000.0 nM
[23] = target: Melatonin receptor type 1A (Homo sapiens) (UniProt P48039); assay: ML1 CEREP ligand profiling; conditions: Compound concentration 10.0 uM
[24] = target: Ribosyldihydronicotinamide dehydrogenase [quinone] (Homo sapiens) (UniProt P16083); assay: (§1) ML2 (MT3) CEREP ligand profiling; conditions: Compound concentration 10.0 uM
[25] = target: Ribosyldihydronicotinamide dehydrogenase [quinone] (Homo sapiens, UniProt P16083); assay: as §1
[26] = tested on: Phosphatidylinositol 4,5-bisphosphate 3-kinase catalytic subunit alpha isoform (Homo sapiens), P42336 [I800L]; conditions: Compound concentration 1000.0 nM
[27] = target: 5-hydroxytryptamine receptor 7 (Homo sapiens) (UniProt P34969); assay: 5-HT7 (h) CEREP ligand profiling; conditions: Compound concentration 10.0 uM
[28] = target: Dual 3',5'-cyclic-AMP and -GMP phosphodiesterase 11A (Homo sapiens) (UniProt Q9HCR9); assay: PDE11 (h) CEREP ligand profiling; conditions: Compound concentration 10.0 uM
[29] = target: Sodium- and chloride-dependent GABA transporter 1 (Homo sapiens) (UniProt P30531); assay: GABA transporter CEREP ligand profiling; conditions: Compound concentration 10.0 uM
[30] = target: Prostacyclin receptor (Homo sapiens, UniProt P43119); assay: Binding assay (PTGIR)
[31] = target: Serine/threonine-protein kinase TAO3 (Homo sapiens) (UniProt Q9H2K8); conditions: Compound concentration 1000.0 nM
[32] = species: Rattus norvegicus; conditions: Compound concentration 10.0 uM

Leukotriene B4 receptor 1, sequence (Q15722 whole entry): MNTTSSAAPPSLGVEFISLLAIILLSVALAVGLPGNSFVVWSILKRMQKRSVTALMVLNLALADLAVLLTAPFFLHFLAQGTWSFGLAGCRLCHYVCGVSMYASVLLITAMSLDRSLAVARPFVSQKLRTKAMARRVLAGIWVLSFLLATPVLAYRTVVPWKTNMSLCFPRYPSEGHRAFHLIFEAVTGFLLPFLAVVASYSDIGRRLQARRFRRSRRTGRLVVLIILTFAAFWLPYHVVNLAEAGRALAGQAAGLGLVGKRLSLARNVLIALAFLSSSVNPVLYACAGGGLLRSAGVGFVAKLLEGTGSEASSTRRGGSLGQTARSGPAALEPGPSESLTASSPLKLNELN
Ribosyldihydronicotinamide dehydrogenase [quinone], sequence (P16083 whole entry, canonical isoform): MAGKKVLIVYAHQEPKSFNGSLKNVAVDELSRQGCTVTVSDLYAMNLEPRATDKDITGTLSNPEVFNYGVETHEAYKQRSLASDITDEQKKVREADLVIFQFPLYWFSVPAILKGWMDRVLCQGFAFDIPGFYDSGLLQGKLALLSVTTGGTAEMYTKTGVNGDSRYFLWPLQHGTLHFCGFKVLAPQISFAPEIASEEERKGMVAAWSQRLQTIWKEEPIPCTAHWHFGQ
5-hydroxytryptamine receptor 1B (Homo sapiens), sequence (P28222 whole entry, canonical isoform): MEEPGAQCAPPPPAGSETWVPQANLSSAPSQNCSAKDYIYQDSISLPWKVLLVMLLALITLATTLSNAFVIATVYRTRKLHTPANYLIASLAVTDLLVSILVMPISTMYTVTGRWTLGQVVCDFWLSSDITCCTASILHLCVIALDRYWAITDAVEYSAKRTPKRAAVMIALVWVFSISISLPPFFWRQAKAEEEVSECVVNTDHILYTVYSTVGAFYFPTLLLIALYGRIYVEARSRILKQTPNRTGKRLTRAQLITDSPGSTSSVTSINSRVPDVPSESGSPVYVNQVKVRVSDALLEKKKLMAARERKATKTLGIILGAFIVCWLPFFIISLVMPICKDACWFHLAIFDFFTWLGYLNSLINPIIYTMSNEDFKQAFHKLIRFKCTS
Ribosyldihydronicotinamide dehydrogenase [quinone] (Homo sapiens), sequence (P16083 whole entry): as the sequence (P16083 whole entry, canonical isoform) above
Serine/threonine-protein kinase PLK3 (Homo sapiens), sequence (Q9H4B4 whole entry, looked up): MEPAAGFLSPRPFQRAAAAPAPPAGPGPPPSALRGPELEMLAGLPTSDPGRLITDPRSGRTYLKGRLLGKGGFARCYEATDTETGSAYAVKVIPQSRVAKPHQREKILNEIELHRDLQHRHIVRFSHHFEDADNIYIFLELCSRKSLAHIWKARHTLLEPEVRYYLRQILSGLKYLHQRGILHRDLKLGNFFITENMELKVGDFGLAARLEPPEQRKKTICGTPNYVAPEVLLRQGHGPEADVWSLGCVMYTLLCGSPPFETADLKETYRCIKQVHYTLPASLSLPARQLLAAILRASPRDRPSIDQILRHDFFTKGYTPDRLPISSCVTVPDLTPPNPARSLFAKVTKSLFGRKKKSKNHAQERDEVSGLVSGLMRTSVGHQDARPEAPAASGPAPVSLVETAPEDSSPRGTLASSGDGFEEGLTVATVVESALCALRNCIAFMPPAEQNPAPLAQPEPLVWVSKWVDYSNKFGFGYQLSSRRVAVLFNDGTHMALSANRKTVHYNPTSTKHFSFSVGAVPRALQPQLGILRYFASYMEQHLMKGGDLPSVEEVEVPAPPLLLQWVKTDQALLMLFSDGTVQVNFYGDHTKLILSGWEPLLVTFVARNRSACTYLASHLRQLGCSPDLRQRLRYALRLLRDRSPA
Melatonin receptor type 1A (Homo sapiens), sequence (P48039 whole entry, looked up): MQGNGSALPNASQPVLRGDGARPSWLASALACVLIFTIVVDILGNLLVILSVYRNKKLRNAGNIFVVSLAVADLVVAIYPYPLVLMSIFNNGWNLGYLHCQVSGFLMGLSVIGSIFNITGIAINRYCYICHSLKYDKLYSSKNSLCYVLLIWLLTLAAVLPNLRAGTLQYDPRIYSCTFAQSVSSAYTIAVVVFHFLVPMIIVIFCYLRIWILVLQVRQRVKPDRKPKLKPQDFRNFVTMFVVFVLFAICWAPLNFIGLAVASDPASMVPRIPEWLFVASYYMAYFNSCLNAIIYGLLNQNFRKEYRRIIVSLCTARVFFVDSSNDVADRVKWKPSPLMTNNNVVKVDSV
Phosphatidylinositol 4,5-bisphosphate 3-kinase catalytic subunit alpha isoform (Homo sapiens), P42336 [Q546K], sequence (P42336 whole entry Q546K, the tested form may be a part, canonical isoform): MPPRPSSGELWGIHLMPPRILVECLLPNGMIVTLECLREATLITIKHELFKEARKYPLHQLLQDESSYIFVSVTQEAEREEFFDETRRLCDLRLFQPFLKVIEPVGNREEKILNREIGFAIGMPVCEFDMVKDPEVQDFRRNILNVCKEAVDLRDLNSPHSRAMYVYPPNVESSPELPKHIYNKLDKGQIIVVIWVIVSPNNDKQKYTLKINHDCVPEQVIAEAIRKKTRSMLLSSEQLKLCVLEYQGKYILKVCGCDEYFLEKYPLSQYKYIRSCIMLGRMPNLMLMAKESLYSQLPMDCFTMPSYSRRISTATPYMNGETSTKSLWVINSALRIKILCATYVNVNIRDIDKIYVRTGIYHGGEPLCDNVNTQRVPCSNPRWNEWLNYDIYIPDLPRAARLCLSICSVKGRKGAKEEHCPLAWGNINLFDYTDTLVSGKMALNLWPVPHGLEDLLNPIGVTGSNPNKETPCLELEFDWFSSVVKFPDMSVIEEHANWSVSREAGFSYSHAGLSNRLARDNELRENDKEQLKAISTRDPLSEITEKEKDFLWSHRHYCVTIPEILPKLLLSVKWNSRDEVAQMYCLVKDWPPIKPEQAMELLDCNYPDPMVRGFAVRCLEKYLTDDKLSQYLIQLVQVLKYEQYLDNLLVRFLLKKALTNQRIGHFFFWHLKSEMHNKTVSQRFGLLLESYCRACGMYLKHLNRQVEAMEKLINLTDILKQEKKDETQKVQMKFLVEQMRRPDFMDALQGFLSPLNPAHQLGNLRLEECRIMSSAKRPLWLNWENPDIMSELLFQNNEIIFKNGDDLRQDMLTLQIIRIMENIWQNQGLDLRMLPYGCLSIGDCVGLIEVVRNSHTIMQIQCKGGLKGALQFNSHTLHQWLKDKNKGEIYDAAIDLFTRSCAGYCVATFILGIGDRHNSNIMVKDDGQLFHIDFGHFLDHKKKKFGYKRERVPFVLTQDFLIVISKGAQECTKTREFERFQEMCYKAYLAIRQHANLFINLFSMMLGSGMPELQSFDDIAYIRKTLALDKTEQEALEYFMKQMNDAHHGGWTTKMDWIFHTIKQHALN
Serine/threonine-protein kinase 24 (Homo sapiens), sequence (Q9Y6E0 whole entry, looked up): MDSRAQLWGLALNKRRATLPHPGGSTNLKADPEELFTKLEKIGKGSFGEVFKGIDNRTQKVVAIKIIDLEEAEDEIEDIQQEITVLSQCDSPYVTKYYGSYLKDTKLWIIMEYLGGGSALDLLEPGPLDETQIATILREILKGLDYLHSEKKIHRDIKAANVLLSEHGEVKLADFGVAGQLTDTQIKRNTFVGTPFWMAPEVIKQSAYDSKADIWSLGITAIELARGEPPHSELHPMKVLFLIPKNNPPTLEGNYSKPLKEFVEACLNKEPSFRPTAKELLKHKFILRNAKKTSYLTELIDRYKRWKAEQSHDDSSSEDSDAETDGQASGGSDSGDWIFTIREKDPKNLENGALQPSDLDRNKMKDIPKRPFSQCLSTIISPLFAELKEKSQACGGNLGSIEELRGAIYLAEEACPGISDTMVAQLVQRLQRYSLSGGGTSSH
Dual 3',5'-cyclic-AMP and -GMP phosphodiesterase 11A (Homo sapiens), sequence (Q9HCR9 whole entry, looked up): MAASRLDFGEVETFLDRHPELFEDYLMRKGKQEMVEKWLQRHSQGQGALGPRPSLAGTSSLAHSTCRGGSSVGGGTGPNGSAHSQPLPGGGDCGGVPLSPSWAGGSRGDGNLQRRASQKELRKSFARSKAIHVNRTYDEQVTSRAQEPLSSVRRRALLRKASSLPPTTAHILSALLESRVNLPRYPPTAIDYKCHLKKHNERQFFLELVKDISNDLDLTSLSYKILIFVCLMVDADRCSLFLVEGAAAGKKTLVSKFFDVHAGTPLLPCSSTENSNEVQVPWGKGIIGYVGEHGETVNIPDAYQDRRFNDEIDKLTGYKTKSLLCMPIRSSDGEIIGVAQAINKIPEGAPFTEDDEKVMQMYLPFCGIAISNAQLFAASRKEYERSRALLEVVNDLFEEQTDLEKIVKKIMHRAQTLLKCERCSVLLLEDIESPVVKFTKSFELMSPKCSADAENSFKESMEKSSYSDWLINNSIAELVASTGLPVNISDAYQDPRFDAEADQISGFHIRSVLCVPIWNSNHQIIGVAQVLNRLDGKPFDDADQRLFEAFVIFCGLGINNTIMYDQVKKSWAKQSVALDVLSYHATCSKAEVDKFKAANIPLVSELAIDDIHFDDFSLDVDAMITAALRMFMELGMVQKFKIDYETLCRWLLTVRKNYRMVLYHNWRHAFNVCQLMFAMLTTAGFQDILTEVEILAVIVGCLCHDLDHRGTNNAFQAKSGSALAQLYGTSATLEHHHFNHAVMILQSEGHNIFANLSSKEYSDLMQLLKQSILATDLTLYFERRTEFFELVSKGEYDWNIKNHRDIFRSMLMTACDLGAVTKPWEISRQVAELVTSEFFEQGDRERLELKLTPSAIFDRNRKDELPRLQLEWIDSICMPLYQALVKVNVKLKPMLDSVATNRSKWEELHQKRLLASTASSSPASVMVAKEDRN

Compound: COc1ccc2cc(OCC3(C(=O)O)CN(C(=O)c4ccc(F)cc4)C3)ccc2c1 [PF-04418948]
inhibition at 10 µM [1]: 41% (not active)
inhibition [2]: 2%
residual activity [3]: 98%
inhibition [4]: 3%
residual activity [5]: 85%
residual activity [6]: 98%
inhibition [7]: 19%
residual activity [8]: 91%
residual activity [9]: 93%
inhibition [10]: -1%
inhibition [11]: -2%
inhibition [12]: 1%
inhibition [13]: 10%
residual activity [14]: 95%
inhibition [15]: -8%
inhibition [16]: -7%
residual activity [17]: 42%
residual activity [18]: 86%
IC50 [19]: 9.7 µM
Ki [19]: 4.8 µM
inhibition ([19]; Compound concentration 10.0 uM): 51%
residual activity [20]: 93%
inhibition at 10 µM [21]: 17% (not active)
residual activity [22]: 85%
inhibition [23]: -3%
inhibition [24]: 93%
IC50 [25]: 0.53 µM
Ki [25]: 0.52 µM
residual activity [26]: 90%
inhibition [27]: -2%
inhibition [28]: 14%
inhibition [29]: 14%
Ki [30]: > 10 µM (not active)
residual activity [31]: 35%

inhibition [32]: 16.3%
Compound: O=C(c1ccc(F)cc1)N1CC(COc2ccc(Br)cc2)(C(=O)O)C1 [PF-04475866]

Reference: ChEMBL document CHEMBL4507298 (2021)
